Results as given in patent publication EP4471049A1 (Zealand Pharma A/S, priority 2023, dated 2024).
*1 amine or outer side, *2 acyl side, *3 side chain or, on linkers, in order; H or OH if unused. Where a SMILES comes first, the peptide text is derived from it. Bridges are numbered along the chain shown (N, C = ends). [ ]: non-standard residue; d: D form. 2Nal = N[C@@H](Cc1ccc2ccccc2c1)C(=O)O; AEF = NCCOc1ccc(C[C@H](N)C(=O)O)cc1; X1 = O=C(Cc1ccc(CN[*:1])cc1)[*:2]; 3Pal = N[C@@H](Cc1cccnc1)C(=O)O; αMeL = CC(C)C[C@](C)(N)C(=O)O; Dab = NCC[C@H](N)C(=O)O; Sar = CNCC(=O)O

Legend:
[1] = Peptide stability in simulated intestinal fluid (SIF); assay type: in vitro ADME; conditions: for remaining at 4 h, 10 µM / remaining at 1 h, 10 µM: pig, simulated intestinal fluid (SIF) with porcine pancreatin
Summary of the method: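 Peptides were incubated at 37 °C with gentle shaking in pH 6.8 potassium phosphate SIF containing porcine pancreatin (10 g/L). Supernatants were analysed by LC-HRMS. Percent remaining at each timepoint, including 4 h, was calculated relative to time zero from absolute peak areas.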

[2] = target: T1, human IL-23R (Homo sapiens, UniProt Q5VWK5); test: biochemical
T1 sequence (Q5VWK5 22-629): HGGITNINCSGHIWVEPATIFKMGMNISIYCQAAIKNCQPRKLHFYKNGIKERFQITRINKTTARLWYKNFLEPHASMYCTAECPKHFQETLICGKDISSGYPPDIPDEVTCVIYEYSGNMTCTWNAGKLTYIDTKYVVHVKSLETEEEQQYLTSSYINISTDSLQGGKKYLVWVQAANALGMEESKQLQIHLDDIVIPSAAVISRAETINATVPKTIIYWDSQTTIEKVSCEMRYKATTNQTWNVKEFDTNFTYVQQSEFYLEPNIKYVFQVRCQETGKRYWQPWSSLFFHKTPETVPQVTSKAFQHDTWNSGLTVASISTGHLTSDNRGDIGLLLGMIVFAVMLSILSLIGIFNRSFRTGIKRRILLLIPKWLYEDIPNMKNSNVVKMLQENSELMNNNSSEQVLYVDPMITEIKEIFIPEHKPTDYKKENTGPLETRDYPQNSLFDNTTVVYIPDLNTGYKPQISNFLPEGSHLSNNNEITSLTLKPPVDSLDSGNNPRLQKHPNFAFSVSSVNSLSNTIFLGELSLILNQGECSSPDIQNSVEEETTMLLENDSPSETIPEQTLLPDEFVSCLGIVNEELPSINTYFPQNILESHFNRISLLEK
Summary of the method: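 BRET displacement of a TAMRA-labelled reference compound from N-terminal Nanoluc-IL-23R fusion protein in membranes from stably transfected HEK293 cells. Incubation 2 h at room temperature, then Nanoluc substrate was added and the TAMRA/Nanoluc ratio read. IC50 and maximal displacement came from 4-parameter logistic fits.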

[3] = Peptide stability in simulated gastric fluid (SGF); assay type: in vitro ADME; conditions: pig, simulated gastric fluid (SGF) with porcine pepsin, 37 °C, pH 1.2, porcine pepsin 3.2 g/L
Summary of the method: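 Peptide incubated at 37 °C with gentle shaking in SGF (NaCl, pH 1.2). Samples centrifuged, diluted and analysed by LC-HRMS; percent remaining at each timepoint from absolute peak areas relative to time zero, with 4 h as the reference point.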

[4] = pH 6.8, Example 2 (Tables 2-1 to 2-4), intact peptide remaining after 4 h, read-out: SIF (% after 4 h)
[5] = 37 °C, pH 6.8, porcine pancreatin 10 g/L, 10 µM
[6] = 4 h, 37 °C, pH 6.8, porcine pancreatin 10 g/L, 10 µM

SMILES: CC(C)C[C@]1(C)NC(=O)[C@H](Cc2ccc3ccccc3c2)NC(=O)[C@H](Cc2ccc(OCCN)cc2)NC(=O)[C@@H]2CCNC(=O)CC[C@H](NC(=O)[C@H](CO)NC(=O)Cc3ccc(cc3)CNC(=O)CC[C@@H](C(=O)N[C@@H](CCN)C(=O)N[C@@](C)(Cc3cccnc3)C(N)=O)NC1=O)C(=O)N[C@@H](Cc1c[nH]c3ccccc13)C(=O)N[C@@H](CCC(N)=O)C(=O)N2 [Compound 3, [4-Aminomethyl-phenylacetyl](1c)*SE(2c)WQ[Dab](2c)[Y(2-aminoethoxy)][2-Nal][2-Me-Leu]E(1c)[Dab][2-Me-3-(3-Pyridyl)-Ala]-[NH2]]
- remaining at 4 h, 10 µM [1, 4]: 109%
- remaining at 1 h, 10 µM [1, 5]: 115%
- % displacement (hIL-23R binding) [2]: 99%
- IC50 [2]: 0.034 nM
- remaining at 1 h, 10 µM [3]: 99%

SMILES: CC(C)C[C@]1(C)NC(=O)[C@H](Cc2ccc3ccccc3c2)NC(=O)[C@H](Cc2ccc(OCCN)cc2)NC(=O)[C@@H]2CCNC(=O)CC[C@H](NC(=O)[C@H](CO)NC(=O)Cc3ccc(cc3)CNC(=O)CC[C@@H](C(=O)N[C@@H](CCN)C(=O)N(C)[C@@H](Cc3cccnc3)C(N)=O)NC1=O)C(=O)N[C@@H](Cc1c[nH]c3ccccc13)C(=O)N[C@@H](CCC(N)=O)C(=O)N2 [Compound 4, [4-Aminomethyl-phenylacetyl](1c)*SE(2c)WQ[Dab](2c)[Y(2-aminoethoxy)][2-Nal][2-Me-Leu]E(1c)[Dab][N-Me-3-(3-Pyridyl)-Ala]-[NH2]]
- remaining at 4 h, 10 µM [1, 4]: 89%
- % displacement (hIL-23R binding) [2]: 111%
- remaining at 1 h, 10 µM [3]: 97%

SMILES: CC(C)C[C@]1(C)NC(=O)[C@H](Cc2ccc3ccccc3c2)NC(=O)[C@H](Cc2ccc(OCCN)cc2)NC(=O)[C@@H]2CCNC(=O)CC[C@H](NC(=O)[C@H](CO)NC(=O)Cc3ccc(cc3)CNC(=O)CC[C@@H](C(=O)N[C@@H](CCN)C(=O)N[C@H](Cc3cccnc3)C(N)=O)NC1=O)C(=O)N[C@@H](Cc1c[nH]c3ccccc13)C(=O)N[C@@H](CCC(N)=O)C(=O)N2 [Compound 5, [4-Aminomethyl-phenylacetyl](1c)*SE(2c)WQ[Dab](2c)[Y(2-aminoethoxy)][2-Nal][2-Me-Leu]E(1c)[Dab][{d}3-(3-Pyridyl)-Ala]-[NH2]]
- SIF (% remaining 4 h) [1, 6]: 41%
- remaining at 4 h, 10 µM [1, 4]: 41%
- % displacement (hIL-23R binding) [2]: 99%
- IC50 [2]: 0.093 nM
- remaining at 1 h, 10 µM [3]: 99%

SMILES: CC(C)C[C@]1(C)NC(=O)[C@H](Cc2ccc3ccccc3c2)NC(=O)[C@H](Cc2ccc(OCCN)cc2)NC(=O)[C@@H]2CCNC(=O)CC[C@H](NC(=O)[C@H](CO)NC(=O)Cc3ccc(cc3)CNC(=O)CC[C@@H](C(=O)N[C@@H](CCN)C(=O)NCCCCc3cccnc3)NC1=O)C(=O)N[C@@H](Cc1c[nH]c3ccccc13)C(=O)N[C@@H](CCC(N)=O)C(=O)N2 [Compound 6, [4-Aminomethyl-phenylacetyl](1c)*SE(2c)WQ[Dab](2c)[Y(2-aminoethoxy)][2-Nal][2-Me-Leu]E(1c)[Dab]-[NH-(4-(pyridin-3-yl)butanyl)]]
- SIF (% remaining 4 h) [1, 6]: 73%
- remaining at 4 h, 10 µM [1, 4]: 73%
- % displacement (hIL-23R binding) [2]: 103%

SMILES: CC(C)C[C@]1(C)NC(=O)[C@H](Cc2ccc3ccccc3c2)NC(=O)[C@H](Cc2ccc(OCCN)cc2)NC(=O)[C@@H]2CCNC(=O)CC[C@H](NC(=O)[C@H](CO)NC(=O)Cc3ccc(cc3)CNC(=O)CC[C@@H](C(=O)N[C@@H](CCN)C(=O)NCCc3cccnc3)NC1=O)C(=O)N[C@@H](Cc1c[nH]c3ccccc13)C(=O)N[C@@H](CCC(N)=O)C(=O)N2 [Compound 7, [4-Aminomethyl-phenylacetyl](1c)*SE(2c)WQ[Dab](2c)[Y(2-aminoethoxy)][2-Nal][2-Me-Leu]E(1c)[Dab]-[NH-(2-(pyridin-3-yl)ethyl)]]
- SIF (% remaining 4 h) [1, 6]: 130%
- SIF (% after 4 h) ([1]; Example 2 (Tables 2-1 to 2-4), intact peptide remaining after 4 h): 130%
- IC50 [2]: 0.012 nM
- Emax ([2]; read-out: % displacement (hIL-23R binding)): 102%
- remaining at 1 h, 10 µM [3]: 77%
- remaining at 4 h, 10 µM [3]: 82%

SMILES: CNC(=O)[C@H](Cc1cccnc1)NC(=O)[C@H](CCN)NC(=O)[C@@H]1CCC(=O)NCc2ccc(cc2)CC(=O)N[C@@H](CO)C(=O)N[C@H]2CCC(=O)NCC[C@H](NC(=O)[C@H](CCC(N)=O)NC(=O)[C@H](Cc3c[nH]c4ccccc34)NC2=O)C(=O)N[C@@H](Cc2ccc(OCCN)cc2)C(=O)N[C@@H](Cc2ccc3ccccc3c2)C(=O)N[C@@](C)(CC(C)C)C(=O)N1 [Compound 8, [4-Aminomethyl-phenylacetyl](1c)*SE(2c)WQ[Dab](2c)[Y(2-aminoethoxy)][2-Nal][2-Me-Leu]E(1c)[Dab][3-(3-Pyridyl)-Ala]-[NHMe]]
- remaining at 4 h, 10 µM [1, 4]: 105%
- % displacement (hIL-23R binding) [2]: 103%
- IC50 [2]: 0.0098 nM

SMILES: CC(C)C[C@]1(C)NC(=O)[C@H](Cc2ccc3ccccc3c2)NC(=O)[C@H](Cc2ccc(OCCN)cc2)NC(=O)[C@@H]2CCNC(=O)CC[C@H](NC(=O)[C@H](CO)NC(=O)Cc3ccc(cc3)CNC(=O)CC[C@@H](C(=O)N[C@@H](CCN)C(=O)N[C@@H](Cc3cccnc3)C(=O)N(C)CC(N)=O)NC1=O)C(=O)N[C@@H](Cc1c[nH]c3ccccc13)C(=O)N[C@@H](CCC(N)=O)C(=O)N2 [Compound 9, [4-Aminomethyl-phenylacetyl](1c)*SE(2c)WQ[Dab](2c)[Y(2-aminoethoxy)][2-Nal][2-Me-Leu]E(1c)[Dab][3-(3-Pyridyl)-Ala][Sar]-[NH2]] ([X1]SEWQ[Dab][AEF][2Nal][αMeL]E[Dab][3Pal][Sar]-NH2; lactam 3-6, N-10)
- remaining at 4 h, 10 µM [1, 4]: 105%
- % displacement (hIL-23R binding) [2]: 100%
- IC50 [2]: 0.0053 nM
- remaining at 1 h, 10 µM [3]: 96%

SMILES: CC(C)C[C@]1(C)NC(=O)[C@H](Cc2ccc3ccccc3c2)NC(=O)[C@H](Cc2ccc(OCCN)cc2)NC(=O)[C@@H]2CCNC(=O)CC[C@H](NC(=O)[C@H](CO)NC(=O)Cc3ccc(cc3)CNC(=O)CC[C@@H](C(=O)N[C@@H](CCN)C(=O)N[C@@H](Cc3cccnc3)C(=O)N[C@H](Cc3c[nH]cn3)C(N)=O)NC1=O)C(=O)N[C@@H](Cc1c[nH]c3ccccc13)C(=O)N[C@@H](CCC(N)=O)C(=O)N2 [Compound 10, [4-Aminomethyl-phenylacetyl](1c)*SE(2c)WQ[Dab](2c)[Y(2-aminoethoxy)][2-Nal][2-Me-Leu]E(1c)[Dab][3-(3-Pyridyl)-Ala][{d}H]-[NH2]] ([X1]SEWQ[Dab][AEF][2Nal][αMeL]E[Dab][3Pal][dH]-NH2; lactam 3-6, N-10)
- SIF (% remaining 4 h) [1, 6]: 11%
- remaining at 4 h, 10 µM [1, 4]: 11%
- remaining at 1 h, 10 µM [1, 5]: 34%
- % displacement (hIL-23R binding) [2]: 91%
- IC50 [2]: 0.0058 nM
- remaining at 1 h, 10 µM [3]: 97%
- remaining at 4 h, 10 µM [3]: 86%

SMILES: CC(C)C[C@]1(C)NC(=O)[C@H](Cc2ccc3ccccc3c2)NC(=O)[C@H](Cc2ccc(OCCN)cc2)NC(=O)[C@@H]2CCNC(=O)CC[C@H](NC(=O)[C@H](CO)NC(=O)Cc3ccc(cc3)CNC(=O)CC[C@@H](C(=O)N[C@@H](CCN)C(=O)N[C@@H](Cc3c[nH]cn3)C(=O)N[C@@H](Cc3cccnc3)C(N)=O)NC1=O)C(=O)N[C@@H](Cc1c[nH]c3ccccc13)C(=O)N[C@@H](CCC(N)=O)C(=O)N2 [Compound 12, [4-Aminomethyl-phenylacetyl](1c)*SE(2c)WQ[Dab](2c)[Y(2-aminoethoxy)][2-Nal][2-Me-Leu]E(1c)[Dab]H[3-(3-Pyridyl)-Ala]-[NH2]] ([X1]SEWQ[Dab][AEF][2Nal][αMeL]E[Dab]H[3Pal]-NH2; lactam 3-6, N-10)
- remaining at 1 h, 10 µM [1, 5]: 60%
- remaining at 4 h, 10 µM ([1]; 4 h, 37 °C, pH 6.8, porcine pancreatin 10 g/L, 10 µM, read-out: SIF (% remaining 4 h)): 2%
- % displacement (hIL-23R binding) [2]: 104%
- IC50 [2]: 0.057 nM
- remaining at 4 h, 10 µM [3]: 93%

SMILES: CC(C)C[C@]1(C)NC(=O)[C@H](Cc2ccc3ccccc3c2)NC(=O)[C@H](Cc2ccc(OCCN)cc2)NC(=O)[C@@H]2CCNC(=O)CC[C@H](NC(=O)[C@H](CO)NC(=O)Cc3ccc(cc3)CNC(=O)CC[C@@H](C(=O)N[C@@H](CCN)C(=O)N[C@H](Cc3c[nH]cn3)C(N)=O)NC1=O)C(=O)N[C@@H](Cc1c[nH]c3ccccc13)C(=O)N[C@@H](CCC(N)=O)C(=O)N2 [Compound 13, [4-Aminomethyl-phenylacetyl](1c)*SE(2c)WQ[Dab](2c)[Y(2-aminoethoxy)][2-Nal][2-Me-Leu]E(1c)[Dab][{d}H]-[NH2]]
- SIF (% remaining 4 h) [1, 6]: 56%
- remaining at 4 h, 10 µM [1, 4]: 56%
- % displacement (hIL-23R binding) [2]: 100%
- IC50 [2]: 0.059 nM
- remaining at 4 h, 10 µM [3]: 78%
